{
  "source": "patent US7160898B2",
  "about": "“Pharmacological treatment for sleep apnea” (Board of Trustees of The University of Illinois, priority 2002, dated 2007)",
  "key": {"sleep/wake architecture": {"tested_on": "sleep/wake architecture", "experiment": "Sleep/wake architecture after 5-HT and GR38032F (Example 3)", "type": "in vivo, rat (Sprague-Dawley)", "conditions": "i.p.", "description": "Sleep and waking states were assessed using the biparietal EEG and nuchal EMG signals on 10-second epochs as described by Bennington et al. [Sleep, 17:28–36 (1994)]. This software discriminated wakefulness (W) as a high frequency low amplitude EEG with a concomitant high EMG tone, NREM sleep by increased spindle and […] activity together with decreased EMG tone, and REM sleep by a […] activity and an absence of EMG tone. Sleep efficiency was measured as the percentage of total recorded epochs staged as NREM or REM sleep.\nEach animal was recorded on four occasions, with recordings for an individual animal separated by at least three days. Fifteen minutes prior to each recording, each animal received (via intraperitoneal injection), in random order, one of the following: (a) saline solution (control); (b) 0.79 mg/kg serotonin; (c) 0.1 mg/kg GR38032F plus 0.79 mg/kg serotonin; or (d) 0.1 mg/kg GR38032F. For the GR38032F+serotonin test group, 0.1 mg/kg GR38032F was administered at time 09:30 followed by 0.79 mg/kg serotonin at time 09:45. Polygraphic recordings were made from 10:00–16:00.\nRespiration BP, EEG, and EMG data were determined and recorded via the experimental procedure as specifically set forth above in Example 2. As in Example 2, sleep apneas, defined as cessation of respiratory effort for at least 2.5 s, were scored for each recording session and were associated with the stage in which they occurred: NREM or REM sleep. The duration requirement of 2.5 s represents at least two “missed” breaths, which is analogous to a 10-s apnea duration requirement in humans.\nThe effects of sleep stage (NREM vs REM) and injection (control vs. administration of either serotonin alone, GR38032F+serotonin, or GR38032F alone) on apnea indexes, respiratory pattern, BP, and HP were tested using analysis of variance (ANOVA) with repeated measures. Multiple comparisons were controlled using Fisher's protected least-significance difference (PLSD). One-way ANOVA was also performed by nonparametric (Kruskal-Wallis) analysis. Conclusions using parametric and nonparametric ANOVA were identical in all cases."}, "cardiovascular variables": {"tested_on": "cardiovascular variables", "experiment": "Radiotelemetry of blood pressure and heart period after GR38032F (Example 2)", "type": "in vivo, rat (Sprague-Dawley)", "conditions": "1 mg/kg i.p.", "source_text": "After surgery, all animals were allowed to recover for one week before being subjected to another surgery that involved implantation of a radiotelemetry transmitter (TA11-PXT, Data Sciences International, St. Paul, Minn.) for monitoring blood pressure (BP) and heart period (HP), estimated as pulse interval. After the animals were anesthetized (as described above), the hair from the subxiphoid space to the pelvis was removed. The entire area was scrubbed with iodine and rinsed with alcohol and saline. A 4–6 cm midline abdominal incision was made to allow good visualization of the area from the bifurcation of the aorta to the renal arteries. A retractor was used to expose the contents of the abdomen and the intestine was held back using saline moistened gauze sponges. The aorta was dissected from the surrounding fat and connective tissues using sterile cotton applicators. A 3-0 silk suture was placed beneath the aorta and traction was applied to the suture to restrict the blood flow. Then the implant (TA11-PXT) was held by forceps while the aorta was punctured just cranial to the bifurcation using a 21-gauge needle bent at the beveled end. The tip of the catheter was inserted under the needle using the needle as a guide until the thin-walled BP sensor section was within the vessel. Finally, one drop of tissue adhesive (Vetbond®, 3M, Minneapolis, Minn.) was applied to the puncture site and covered with a small square of cellulose fiber (approximately 5 mm^2) so as to seal the puncture after catheter insertion. The radio implant was attached to the abdominal wall by 3-0 silk suture, and the incision was closed in layers. After the second surgery, animals were again allowed a one week recovery period prior to administration of the serotonin receptor antagonist and subsequent physiological recording.\nPhysiological parameters (see below) from each animal were recorded on 2 occasions in random order, with recordings for an individual animal separated for at least 3 days. Fifteen minutes prior to each recording each animal received a systemic injection (1 ml/kg intraperitoneal bolus injection) of either saline (control) or 1 mg/kg of ondansetron (GR38032F; 1,2,3,9-tetrahydro-9-methyl-3-[(2-methylimidazol-1-yl)methyl]carbazole-4-one, hydrochloride, dihydrate; Glaxo Wellcome, Inc., Research Triangle Park, N.C.). Polygraphic recordings were made from hours 10:00–16:00.\nSimilar software (Experimenters' Workbench; Datawave Technologies, Longmont, Colo.) was employed to analyze the blood pressure waveform; for each beat of each recording, systolic (SBP) and diastolic (DBP) blood pressures and pulse interval were measured. The pulse interval provided a beat by beat estimate of HP. Mean BP (MBP) was estimated according to the weighted average of SBP and DBP for each beat: MBP=DBP+(SBP−DBP)/3. The parameters for each beat were also classified according to the sleep/wake state and recording hour during which they occurred."}, "[1]": {"conditions": "percent recording time, 6 hours, 5-HT 0.79 mg/kg, GR38032F 0.1 mg/kg, mean ± SE"}},
  "data": [
    {"smiles": "Cc1nccn1CC1CCc2c(c3ccccc3n2C)C1=O.Cl.O.O", "note": "(centres unmarked) [GR38032F, 1,2,3,9-tetrahydro-9-methyl-3-[(2-methylimidazol-1-yl)methyl]carbazole-4-one, hydrochloride, dihydrate]", "values": [
      {"measurement": "effect on sleep architecture", "setting": "sleep/wake architecture; 6 hours of polygraphic recording", "value": "had no effect on sleep architecture"},
      {"measurement": "% NREM", "setting": "sleep/wake architecture; [1]", "value": "63.4 ± 5.7", "unit": "%"},
      {"measurement": "% REM", "setting": "sleep/wake architecture; [1]", "value": "7.3 ± 2.3", "unit": "%"},
      {"measurement": "% Wakefulness", "setting": "sleep/wake architecture; [1]", "value": "28.8 ± 6.4", "unit": "%"},
      {"measurement": "HP, NREM", "setting": "cardiovascular variables; NREM sleep, mean ± SE", "value": "189 ± 3", "unit": "ms"},
      {"measurement": "Mean BP, NREM", "setting": "cardiovascular variables; NREM sleep, mean ± SE", "value": "112 ± 17", "unit": "mm Hg"},
      {"measurement": "HP, REM", "setting": "cardiovascular variables; REM sleep, mean ± SE", "value": "190 ± 3", "unit": "ms"},
      {"measurement": "Mean BP, REM", "setting": "cardiovascular variables; REM sleep, mean ± SE", "value": "110 ± 17", "unit": "mm Hg"},
      {"measurement": "effect on cardiovascular variables (MBP and HP during W, NREM, REM sleep)", "setting": "cardiovascular variables; p>0.1 for each variable", "value": "no effect on any cardiovascular variable"},
      {"measurement": "HP, W", "setting": "cardiovascular variables; wakefulness, mean ± SE", "value": "183 ± 3", "unit": "ms"},
      {"measurement": "Mean BP, W", "setting": "cardiovascular variables; wakefulness, mean ± SE", "value": 113, "unit": "mm Hg"}
    ]}
  ]
}
